In PubChem BioAssay (NCI):
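In this assay, cells in 96-well plates receive the compound at five concentrations for 48 hours. Endpoints are linearly interpolated between the surrounding concentrations. TGI: concentration producing complete growth inhibition.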

What was measured:
Assay in all cases: DTP human tumour cell line panel, 48 h
RXF 393 renal = system: RXF 393 renal
M14 melanoma = system: M14 melanoma
KM12 colon = system: KM12 colon
A498 renal = system: A498 renal
NCI-H226 lung = system: NCI-H226 lung
SK-OV-3 ovarian = system: SK-OV-3 ovarian
SK-MEL-28 melanoma = system: SK-MEL-28 melanoma
NCI-H522 lung = system: NCI-H522 lung
OVCAR-8 ovarian = system: OVCAR-8 ovarian
TK-10 renal = system: TK-10 renal
NCI-H23 lung = system: NCI-H23 lung
HCT-116 colon = system: HCT-116 colon
UO-31 renal = system: UO-31 renal
NCI-H460 lung = system: NCI-H460 lung
HT29 colon = system: HT29 colon
DLD-1 colon = system: DLD-1 colon
HCC-2998 colon = system: HCC-2998 colon
HCT-15 colon = system: HCT-15 colon
SF-539 CNS = system: SF-539 CNS
SNB-75 CNS = system: SNB-75 CNS
LXFL 529 NSCLC = system: LXFL 529 NSCLC
A549 NSCLC = system: A549 NSCLC
CCRF-CEM leukemia = system: CCRF-CEM leukemia
HOP-62 NSCLC = system: HOP-62 NSCLC
SN12C renal = system: SN12C renal
U251 CNS = system: U251 CNS
CAKI-1 renal = system: CAKI-1 renal
HOP-92 NSCLC = system: HOP-92 NSCLC
COLO 205 colon = system: COLO 205 colon
MALME-3M melanoma = system: MALME-3M melanoma
SF-295 CNS = system: SF-295 CNS
SW-620 colon = system: SW-620 colon
LOX IMVI melanoma = system: LOX IMVI melanoma
OVCAR-3 ovarian = system: OVCAR-3 ovarian
SK-MEL-2 melanoma = system: SK-MEL-2 melanoma
SK-MEL-5 melanoma = system: SK-MEL-5 melanoma
UACC-257 melanoma = system: UACC-257 melanoma
SR leukemia = system: SR leukemia
UACC-62 melanoma = system: UACC-62 melanoma
786-0 renal = system: 786-0 renal
OVCAR-4 ovarian = system: OVCAR-4 ovarian
DMS 114 small cell lung = system: DMS 114 small cell lung
SNB-78 CNS = system: SNB-78 CNS
MOLT-4 leukemia = system: MOLT-4 leukemia
DMS 273 small cell lung = system: DMS 273 small cell lung
HL-60(TB) leukemia = system: HL-60(TB) leukemia
K-562 leukemia = system: K-562 leukemia
M19-MEL melanoma = system: M19-MEL melanoma
IGROV1 ovarian = system: IGROV1 ovarian
RPMI-8226 leukemia = system: RPMI-8226 leukemia
OVCAR-5 ovarian = system: OVCAR-5 ovarian
EKVX NSCLC = system: EKVX NSCLC
KM20L2 colon = system: KM20L2 colon
SF-268 CNS = system: SF-268 CNS
SNB-19 CNS = system: SNB-19 CNS
ACHN renal = system: ACHN renal
XF 498 CNS = system: XF 498 CNS
HOP-18 NSCLC = system: HOP-18 NSCLC

## Cc1cnc(SCCN2CCN(C)CC2)nc1-c1cc2ccccc2s1
RXF 393 renal
  TGI: 22.7 µM
M14 melanoma
  TGI: 27.4 µM
KM12 colon
  TGI: 32.2 µM
A498 renal
  TGI: 29.8 µM
NCI-H226 lung
  TGI: 25.3 µM
SK-OV-3 ovarian
  TGI: 13.8 µM
SK-MEL-28 melanoma
  TGI: 32.7 µM
NCI-H522 lung
  TGI: 29.6 µM
OVCAR-8 ovarian
  TGI: 25.8 µM
TK-10 renal
  TGI: 33.1 µM
NCI-H23 lung
  TGI: 34.3 µM
HCT-116 colon
  TGI: 26.8 µM
UO-31 renal
  TGI: 20.8 µM
NCI-H460 lung
  TGI: 14.6 µM
HT29 colon
  TGI: 18.7 µM
DLD-1 colon
  TGI: 25.4 µM
HCC-2998 colon
  TGI: 26.9 µM
HCT-15 colon
  TGI: 24.7 µM
SF-539 CNS
  TGI: 25.1 µM
SNB-75 CNS
  TGI: 24.6 µM
LXFL 529 NSCLC
  TGI: 27 µM
A549 NSCLC
  TGI: 16 µM
CCRF-CEM leukemia
  TGI: 14.2 µM
HOP-62 NSCLC
  TGI: 4.81 µM
SN12C renal
  TGI: 21.3 µM
U251 CNS
  TGI: 21.7 µM
CAKI-1 renal
  TGI: 16.4 µM
HOP-92 NSCLC
  TGI: 18.3 µM
COLO 205 colon
  TGI: 29.2 µM
MALME-3M melanoma
  TGI: 31.6 µM
SF-295 CNS
  TGI: 21.2 µM
SW-620 colon
  TGI: 24.7 µM
LOX IMVI melanoma
  TGI: 18.6 µM
OVCAR-3 ovarian
  TGI: 24.6 µM
SK-MEL-2 melanoma
  TGI: 30.9 µM
SK-MEL-5 melanoma
  TGI: 14.6 µM
UACC-257 melanoma
  TGI: 23.5 µM
SR leukemia
  TGI: 8.46 µM
UACC-62 melanoma
  TGI: 32.2 µM
786-0 renal
  TGI: 24.3 µM
OVCAR-4 ovarian
  TGI: 34.1 µM
DMS 114 small cell lung
  TGI: 20.5 µM
SNB-78 CNS
  TGI: 32.5 µM
MOLT-4 leukemia
  TGI: 7.5 µM
DMS 273 small cell lung
  TGI: 18.1 µM

## COC(=O)C(=O)C(CC(=O)Nc1cccc(C(F)(F)F)c1)C(=O)OC (stereo not drawn)
HL-60(TB) leukemia
  TGI: > 100 µM
RXF 393 renal
  TGI: > 100 µM
M14 melanoma
  TGI: > 100 µM
A498 renal
  TGI: > 100 µM
K-562 leukemia
  TGI: > 100 µM
NCI-H226 lung
  TGI: > 100 µM
M19-MEL melanoma
  TGI: > 100 µM
SK-OV-3 ovarian
  TGI: > 100 µM
SK-MEL-28 melanoma
  TGI: > 100 µM
NCI-H522 lung
  TGI: > 100 µM
OVCAR-8 ovarian
  TGI: > 100 µM
IGROV1 ovarian
  TGI: > 100 µM
TK-10 renal
  TGI: > 100 µM
NCI-H23 lung
  TGI: > 100 µM
HCT-116 colon
  TGI: > 100 µM
UO-31 renal
  TGI: > 100 µM
RPMI-8226 leukemia
  TGI: > 100 µM
NCI-H460 lung
  TGI: > 100 µM
DLD-1 colon
  TGI: > 100 µM
OVCAR-5 ovarian
  TGI: > 100 µM
HCC-2998 colon
  TGI: > 100 µM
HCT-15 colon
  TGI: > 100 µM
SF-539 CNS
  TGI: > 100 µM
SNB-75 CNS
  TGI: > 100 µM
EKVX NSCLC
  TGI: > 100 µM
LXFL 529 NSCLC
  TGI: > 100 µM
A549 NSCLC
  TGI: > 100 µM
CCRF-CEM leukemia
  TGI: > 100 µM
HOP-62 NSCLC
  TGI: > 100 µM
SN12C renal
  TGI: > 100 µM
U251 CNS
  TGI: > 100 µM
CAKI-1 renal
  TGI: > 100 µM
HOP-92 NSCLC
  TGI: > 100 µM
KM20L2 colon
  TGI: > 100 µM
COLO 205 colon
  TGI: > 100 µM
MALME-3M melanoma
  TGI: > 100 µM
SW-620 colon
  TGI: > 100 µM
LOX IMVI melanoma
  TGI: > 100 µM
SF-268 CNS
  TGI: > 100 µM
SK-MEL-2 melanoma
  TGI: > 100 µM
SNB-19 CNS
  TGI: > 100 µM
SK-MEL-5 melanoma
  TGI: > 100 µM
UACC-62 melanoma
  TGI: > 100 µM
786-0 renal
  TGI: > 100 µM
OVCAR-4 ovarian
  TGI: > 100 µM
DMS 114 small cell lung
  TGI: > 100 µM
SNB-78 CNS
  TGI: > 100 µM
MOLT-4 leukemia
  TGI: > 100 µM
ACHN renal
  TGI: > 100 µM

## CC1=C/C(=C2/N=C(N(C)C)SS2)C(C)=N1
HL-60(TB) leukemia
  TGI: > 100 µM
RXF 393 renal
  TGI: > 100 µM
M14 melanoma
  TGI: > 100 µM
KM12 colon
  TGI: > 100 µM
A498 renal
  TGI: > 100 µM
K-562 leukemia
  TGI: > 100 µM
NCI-H226 lung
  TGI: > 100 µM
M19-MEL melanoma
  TGI: > 100 µM
SK-OV-3 ovarian
  TGI: > 100 µM
SK-MEL-28 melanoma
  TGI: > 100 µM
NCI-H522 lung
  TGI: > 100 µM
OVCAR-8 ovarian
  TGI: > 100 µM
IGROV1 ovarian
  TGI: > 100 µM
TK-10 renal
  TGI: > 100 µM
NCI-H23 lung
  TGI: > 100 µM
HCT-116 colon
  TGI: > 100 µM
UO-31 renal
  TGI: > 100 µM
RPMI-8226 leukemia
  TGI: > 100 µM
NCI-H460 lung
  TGI: > 100 µM
HT29 colon
  TGI: > 100 µM
DLD-1 colon
  TGI: > 100 µM
OVCAR-5 ovarian
  TGI: > 100 µM
HCC-2998 colon
  TGI: > 100 µM
HCT-15 colon
  TGI: > 100 µM
XF 498 CNS
  TGI: > 100 µM
SF-539 CNS
  TGI: > 100 µM
SNB-75 CNS
  TGI: > 100 µM
EKVX NSCLC
  TGI: > 100 µM
HOP-18 NSCLC
  TGI: > 100 µM
LXFL 529 NSCLC
  TGI: > 100 µM
A549 NSCLC
  TGI: > 100 µM
HOP-62 NSCLC
  TGI: > 100 µM
SN12C renal
  TGI: > 100 µM
U251 CNS
  TGI: > 100 µM
CAKI-1 renal
  TGI: > 100 µM
HOP-92 NSCLC
  TGI: > 100 µM
KM20L2 colon
  TGI: > 100 µM
COLO 205 colon
  TGI: > 100 µM
MALME-3M melanoma
  TGI: > 100 µM
SF-295 CNS
  TGI: > 100 µM
SW-620 colon
  TGI: > 100 µM
LOX IMVI melanoma
  TGI: > 100 µM
SF-268 CNS
  TGI: > 100 µM
OVCAR-3 ovarian
  TGI: > 100 µM
SNB-19 CNS
  TGI: > 100 µM
UACC-257 melanoma
  TGI: > 100 µM
SR leukemia
  TGI: > 100 µM
786-0 renal
  TGI: > 100 µM
OVCAR-4 ovarian
  TGI: > 100 µM
DMS 114 small cell lung
  TGI: > 100 µM
SNB-78 CNS
  TGI: > 100 µM
MOLT-4 leukemia
  TGI: > 100 µM
DMS 273 small cell lung
  TGI: > 100 µM
ACHN renal
  TGI: > 100 µM

## CN1C(=O)C(=CN(C)c2ccccc2)C(=O)N(C)C1=O
HL-60(TB) leukemia
  TGI: > 100 µM
RXF 393 renal
  TGI: > 100 µM
M14 melanoma
  TGI: > 100 µM
KM12 colon
  TGI: > 100 µM
A498 renal
  TGI: > 100 µM
K-562 leukemia
  TGI: > 100 µM
NCI-H226 lung
  TGI: > 100 µM
M19-MEL melanoma
  TGI: > 100 µM
SK-MEL-28 melanoma
  TGI: > 100 µM
OVCAR-8 ovarian
  TGI: > 100 µM
IGROV1 ovarian
  TGI: > 100 µM
TK-10 renal
  TGI: > 100 µM
HCT-116 colon
  TGI: > 100 µM
UO-31 renal
  TGI: > 100 µM
RPMI-8226 leukemia
  TGI: > 100 µM
NCI-H460 lung
  TGI: > 100 µM
DLD-1 colon
  TGI: > 100 µM
OVCAR-5 ovarian
  TGI: > 100 µM
HCC-2998 colon
  TGI: > 100 µM
HCT-15 colon
  TGI: > 100 µM
XF 498 CNS
  TGI: > 100 µM
SF-539 CNS
  TGI: > 100 µM
SNB-75 CNS
  TGI: > 100 µM
EKVX NSCLC
  TGI: > 100 µM
HOP-18 NSCLC
  TGI: > 100 µM
LXFL 529 NSCLC
  TGI: > 100 µM
A549 NSCLC
  TGI: > 100 µM
CCRF-CEM leukemia
  TGI: > 100 µM
SN12C renal
  TGI: > 100 µM
U251 CNS
  TGI: > 100 µM
CAKI-1 renal
  TGI: > 100 µM
KM20L2 colon
  TGI: > 100 µM
MALME-3M melanoma
  TGI: > 100 µM
SF-295 CNS
  TGI: > 100 µM
SW-620 colon
  TGI: > 100 µM
LOX IMVI melanoma
  TGI: > 100 µM
OVCAR-3 ovarian
  TGI: > 100 µM
SK-MEL-2 melanoma
  TGI: > 100 µM
SNB-19 CNS
  TGI: > 100 µM
SK-MEL-5 melanoma
  TGI: > 100 µM
UACC-257 melanoma
  TGI: > 100 µM
SR leukemia
  TGI: > 100 µM
UACC-62 melanoma
  TGI: > 100 µM
786-0 renal
  TGI: > 100 µM
OVCAR-4 ovarian
  TGI: > 100 µM
DMS 114 small cell lung
  TGI: > 100 µM
SNB-78 CNS
  TGI: > 100 µM
MOLT-4 leukemia
  TGI: > 100 µM
DMS 273 small cell lung
  TGI: > 100 µM
ACHN renal
  TGI: > 100 µM
